Results taken from US11135219B2, “Methods of treating or preventing Zika virus infection” (priority 2017, dated 2021).
pIC50: −log10 of the molar value.

What was measured:
[1] = tested on: Zika virus strain PRVABC59; experiment: Inhibition assay: PRVABC59 ZIKV growth in Vero cells (plaque assay, RT-qPCR); format: cell-based
Protocol: (§1) Vero cells were seeded in a 96-well plate with the density of 6000 cells per well. In the initial screening study, the compound (1 μM)-virus (0.1 PFU/cell) mixture in virus growth medium (VGM) [DMEM containing 2% FBS, PS, 20 mM hydroxyethyl piperazine ethane sulfonic acid (HEPES), 1 mM sodium pyruvate, and non-essential amino acids] was added to the cells and incubated for 72 h. In a separate experiment conducted using 12-well plates, the cells were first infected with the virus at 0.1 PFU/cell and following adsorption, the cells were washed twice in PBS and incubated in VGM containing 1 μM concentrations of the drugs. The cell culture media were collected at 72-96 h post-infection and assayed for infectious virus by plaque assay and viral genome copies by quantitative RT-PCR (RT-qPCR). In all subsequent studies, cells in 12-well plates were infected with ZIKV at MOI of 0.1 PFU/cell and following virus adsorption for 1 h at 37° C., VGM containing various concentrations TPB was added to the cells and incubated as above. Clarified supernatants from the infected cells were then used to determine infectious virus or genome copies as above.
(§2) ZIKV viral RNA was detected using RT-qPCR on a C100 Thermal Cycler and the CFX96 Real-Time system (Bio-Rad). Viral RNA (vRNA) was extracted from culture supernatant using a QlAamp Viral RNA Mini kit (Qiagen) and TaqMan Fast Virus 1-Step Master Mix (Life technologies). ZIKV primers and probe (ZIKF: CCGCTGCCCAACACAAG (SEQ ID NO:1); ZIK-R:[…] (SEQ ID NO:2); PCR Probe: ZIK-P: […] (SEQ ID NO:3)) were used for quantitative RT-PCR (RT-qPCR) with the following parameters: 50° C. 30 min, 95° C. 5 min, (95° C. 30 S, 58° C. 1 min)×40 cycles. RNA standard concentrations were determined based on the back calculation with OD values and molecular weights and were generated through serial dilution with R^2>0.95.

PRVABC59 virus [2] = experiment: in vivo; format: in vivo, Balb/C mice
Protocol: as §2
(§3) Balb/C mice were obtained from the Jackson Laboratory (Bar Harbor, Me., USA). After acclimatization for four days, groups of animals (n=6 per group) were injected intraperitoneally with 25 mg/kg body weight dose of TPB diluted in saline or saline alone (no drug control). Following three injections at 12 h intervals, 500 PFU of PRVABC59 virus diluted in PBS was inoculated into each mouse by the subcutaneous (SC) route. Blood was collected by retro-orbital bleeding under anesthesia at days 2, 3, 4, 5, and 6 post-infection. Viral genome copies in the plasma were determined by RT-qPCR.

in vivo = format: in vivo, Balb/C mice; conditions: Balb/C, mouse, in vivo, ip, 25 mg/kg
Protocol: as §2, §3

PRVABC59 virus [3] = experiment: PRVABC59 virus growth in HTR-8 cells in the presence of TPB; format: cell-based, Zika virus; conditions: human trophoblast cell line HTR-8
[4] = ATP-based cell viability assay (CellTiter-Glo); conditions: African green monkey (Cercopithecus aethiops), Vero cells, four days, read-out: CC50 (cellular cytotoxicity 50)
Protocol: A modified ATP based cytopathic effect (CPE) assay was used for this study based on the CPE method for anti-DENV drug development described elsewhere (see, e.g., Che et al., 2009 Int. J. Clin. Exp. Med. 2:363-373). Vero cells (approximately 30,000 per well) were seeded in a black 96-well plate for 24 hours before the experiment. Cell monolayers were treated with various concentrations of the drugs for 4 days at 37° C. The ATP concentration was measured following manufacturer's recommendations using CellTiter-Glo kit from Promega (Madison, Wis.). Luminescence was recorded using a Veritas Microplate Luminometer at 420 nm. The 50% cytotoxic concentration (CC50) was calculated by a non-linear regression analysis of the dose-response curves.

PRVABC59 virus [5] = experiment: PRVABC59 virus growth in NTERRA cells in the presence of TPB; format: cell-based, Zika virus; conditions: human testicular cell line NTERRA
Zika virus strain MR766 = experiment: Inhibition of MR766 virus growth by TPB; format: cell-based; conditions: μM range TPB concentrations tested
Protocol: as §1

Viral E protein = experiment: Western blot analysis of E protein expression in virus-infected cells; format: cell-based, Zika virus
Protocol: FIGS. 3A-3C show validation of the antiviral effect of TPB in the μM range. (FIG. 3A) Cells infected with PRVABC59 virus were incubated in the presence of various concentrations of TPB for 96 hours. Culture supernatants were titrated for viral genome copies (FIG. 3A) and infectious virus (FIG. 3B). Data are from three independent experiments with error bars showing±SEM. Statistical analysis was performed using unpaired two-tailed Student's t-test to determine significance of difference. […]. (FIG. 3C) Western blot analysis of E protein expression in virus-infected cells in the presence of various concentrations of TPB. Relative mobility of molecular mass markers are shown on the left.

[6] = Pharmacokinetic study of TPB in mice (plasma LC-MS/MS); format: in vivo, Balb/C mice; conditions: 10-12 h post-injection, intraperitoneal, 5 mg/kg or 25 mg/kg
Protocol: For PK studies, groups of Balb/C mice (n=3) were injected intraperitoneally with doses of 5 mg/kg or 25 mg/kg of body weight of TPB in 5% dextrose, plasma was collected from the animals at various times post-injection and stored at −80° C. until analysis by LC-MS/MS for TPB concentrations. Plasma drug levels were subjected to noncompartmental analysis (WinNonlin ver. 6.4 Certera Inc., Princeton, N.J.). The predicted steady-state levels>500 ng/ml were estimated using a twelve h dosing of 25 mg/kg dose of the compound in mice.
TPB was dissolved in DMSO at 1 mg/ml. Working standard solutions were then prepared in 50% methanol in water from the stock solution. Standards (an eight-point calibration curve) and quality controls (at three levels) were prepared by spiking the working standard solutions to blank mouse plasma. One hundred μl aliquot of plasma was mixed with 25 μl of internal standard spiking solution (rilpivirine 1000 ng/ml in 50% acetonitrile in water), 1.5 ml ethyl acetate was added and vortexed vigorously for 15 min. […]
An Agilent 1200 HPLC system (Agilent Technologies, CA, USA) coupled with AB Sciex API 3200 Q Trap with an electrospray ionization source (Applied Biosystems, Foster City, Calif., USA) was used. The mass transitions m/z 541.2→330.2 and 541.2→212.2 for analyte and m/z 367.2→195.2 for internal standard were monitored. […]

ZIKV = conditions: cited from earlier work
DENV = conditions: cited from earlier work

For `O=C(NC(=S)Nc1ccc(N2CCN(C(=O)c3cccs3)CC2)cc1)c1sc2ccccc2c1Cl` [Compound 1, 3-chloro-N-[({4-[4-(2-thienylcarbonyl)-1-piperazinyl]phenyl}amino)carbonothioyl]-1-benzothiophene-2-carboxamide], the “Genome copy numbers in supernatants, reduction” value ([1]; 0.5 μM TPB, 96 hours) was “over 100 fold”, the “Infectious virus in supernatants, reduction” value ([1]; 0.5 μM TPB, 96 hours) was “over 100 fold” and the Virus growth reduction ([1]; 1 μM TPB, 96 hours) was “over 1000 fold”. The “ZIKV growth inhibition (genome copies in culture supernatants) vs vehicle-only treated cells” value ([1]; 1 μM compound, Vero cells, 72 hours) was greater than 99%, the “Infectious virus yield inhibition” value ([1]; 1 μM compound, Vero cells, 96 hours) was “at least 1000 fold” and the “ZIKV yield inhibition, side-by-side comparison” value ([1]; 1 μM, Vero cells, PRVABC59, 96 hours post-infection) was “over 1000 fold”. For the same compound, the “Selectivity index 50 (SI50, CC50/IC50)” value ([1]; Vero cells) was 206, the pIC50 ([1]; Zika virus, Vero, 96 h, Vero cells, PRVABC59, 96 hours post-infection, read-out: IC50 (infectious virus yield, plaque assay)) was 7.03 and the “Viral RNA level in plasma, lower than vehicle group” value (PRVABC59 virus [2]; day 4 post-infection, 25 mg/kg intraperitoneal, 500 PFU ZIKV) was roughly 40 fold. The ZIKV viremia (PRVABC59 virus [2]; immunocompetent mice) was “reduced ZIKV viremia significantly”, the concentration at 2 days post-infection (in vivo) was roughly 270 ng/mL and the “PRVABC59 virus growth inhibition in HTR-8” value (PRVABC59 virus [3]) was “inhibited the virus growth”. For the same compound, the CC50 at 4 days [4] was 19.4 µM, the “PRVABC59 virus growth inhibition in NTERRA” value (PRVABC59 virus [5]) was “inhibited the virus growth” and the “MR766 virus growth inhibition” value (Zika virus strain MR766) was “sensitive to inhibition”. For the same compound, the “Viral E protein synthesis in infected cells” value (Viral E protein; 0.5 μM TPB) was “significantly inhibited”, the “Viral E protein synthesis in infected cells” value (Viral E protein; higher concentrations than 0.5 μM TPB) was “undetectable” and the TPB plasma level [6] was “approximately 100 ng/ml”.
For `CC[C@H](C)[C@H]1O[C@]2(CC[C@@H]1C)C[C@@H]1C[C@@H](C/C=C(\C)[C@@H](O[C@H]3C[C@H](OC)[C@@H](O[C@H]4C[C@H](OC)[C@@H](O)[C@H](C)O4)[C@H](C)O3)[C@@H](C)/C=C/C=C3\CO[C@@H]4[C@H](O)C(C)=C[C@@H](C(=O)O1)[C@]34O)O2` [IVM, Ivermectin], the “Inhibition of ZIKV infection” value (ZIKV; 10 μM) is given as “strongly”.
In the case of `COc1c(C)c2c(c(O)c1C/C=C(\C)CCC(=O)O)C(=O)OC2` [MPA, Mycophenolic acid], the “Inhibition of infection of cells in vitro by ZIKV” value (ZIKV; 1 μM) is listed as “over 99%” and the “DENV RNA replication” value (DENV) is listed as “inhibit DENV RNA replication”.
